# Data taken from US11661404B2, “Prodrug compounds activated by AKR1C3 and their use for treating hyperproliferative disorders” (priority 2018, dated 2023).
# pIC50: −log10 of the molar value. Where two headings read alike, the source gives them in different places.
# Legend:
# [1] = test system: wild-type PLC/PRF/5 hepatocellular carcinoma cells; assay: Anti-proliferative IC50 assay, wild-type PLC/PRF/5; assay type: cell-based, human; details: for pIC50: Homo sapiens, PLC-PRF-5
# Experimental: Four hundred cells were seeded in a volume of 100 μL in each well of a 96-well plate. The cells were left in a humidified incubator (37° C., 5% CO2) for 2 hours in order to enable attachment to the surface of the wells prior to compound addition. All compounds were prepared as stocks in DMSO and stored at −80° C. Frozen stocks of compounds were thawed immediately prior to addition to cells. Working solutions of each compound were made in α-MEM+5% FBS (v/v) at 3 times the required final concentration for the top well. The final concentration of DMSO in the α-MEM solution was ensured to not exceed 1% of the total volume. 50 μL of the working solution was added to the top wells (in duplicates) and gently mixed. The solubility of some compounds precluded the working solution in α-MEM to be 3 times the desired top well concentration. […] A 3-fold serial dilution was carried out along the plate starting from the top well. The first column of wells on the plate served as blanks (containing α-MEM+FBS) and the second column served as control wells (containing cells with no compound added). Following compound addition, the plates were incubated for 4 hours in a humidified incubator (37° C., 5% CO2).
# Following the 4 hour compound exposure, the 96-well plates were washed three times by aspirating media with an Immuno Washer (Nunc) and each well replaced with 150 μL of α-MEM+5% (v/v) FBS+1% (v/v) P/S. The plates were left in a humidified incubator (37° C., 5% CO2) for 5 days to enable cell growth. The cells in 96-well plates were fixed 5 days after compound exposure by adding 50 μL of a 40% (w/v) trichloroacetic acid (TCA) solution so as to obtain a final TCA concentration of 10% in each well. The plates were left in the refrigerator (4° C.) for 1 hour and subsequently rinsed 3 times in tap water. Any excess water was left to drain and the cells were stained with 50 μL of 0.4% (w/v) sulforhodamine B (SRB). The plates with the SRB stain were left in the dark for 30 minutes. Excess stain was removed from the wells by rinsing the plates 4 times in water containing 1% (v/v) acetic acid. The stain was solubilised by adding 100 μL of 10 mM unbuffered Tris (pH 10.5) to each well and the plates were left in a shaker in a dark environment at room temperature for at least 1 hour. The absorbance values of the wells were determined by an ELx 808 Absorbance Microplate Reader (Bio-Tek Instruments, Winooski, Vt., USA), with the wavelength of the measurement filter set at 490 nm and a reference filter set at 450 nm. The absorbance of the reference filter was subtracted from the measurement filter to obtain a final absorbance of λ490-450 nm. The absorbance data was analysed and IC50 values determined by the KC4 microplate data analysis software (KC4™ V3.4, Bio-Tek).
# Anti-proliferative IC50 assays were repeated as described above including the addition of 3 μM SN34037, a selective and potent small molecule inhibitor of AKR1C3.
# Materials and methods used are as described for Example 9.
# [2] = test system: H460 lung cancer xenografts; assay: Tumour growth delay, H460 xenografts; assay type: in vivo, NIH-III mice; details: q4dx3 intraperitoneal; for tolerability of schedule: 237, 178 and 178 μmol/kg
# Text: Specific pathogen-free female homozygous nude NIH-III (NIH-Lyst^bg Foxn1^nu Btk^xid) mice were bred by the Vernon Jansen Unit (shared vivarium, University of Auckland). Animals were housed in Techniplast microisolator cages and provided with a standard twelve hour day-night light schedule. Animals received standard rodent diet (Harlan Teklad diet 2018i) and water ad libitum. All animal studies were approved by the University of Auckland Animal Ethics Committee.
# Animals weighed 18-25 g at the time of tumour inoculation. Tumours were grown subcutaneously on the right flank of mice by inoculating cells grown in tissue culture (1×10^7 cells in 100 uL serum free α-MEM). Tumour sizes were monitored three times weekly using electronic callipers and treatments were initiated once tumour diameter reached ≥7 mm.
# Tumour bearing mice were randomised into the appropriate treatment groups and tumour size and body weight recorded. Test compounds were formulated on the day of the experiment and kept in foil-wrapped tubes out of direct fluorescent light. If recruitment of animals occurred over multiple days, the drug stocks were aliquoted into tubes and frozen once at −80° C. until required. Mice were treated with a single (or q4dx3 or q4dx4 or q4dx6) dose of a compound of the invention by intraperitoneal injection and thereafter tumour size and body weight was monitored every second day. Tumour volume was calculated as […] (l×w×w)/6, where l is the major axis and w is the perpendicular minor axis. Animals were culled when they had reached the appropriate survival endpoint or when body weight loss exceeded 20% of the pre-treatment value.
# AKR1C3 mixed MCLs = details: cited from earlier work
# [3] = read-out: PLC/PRF/5-WT Anti-proliferative IC50
# [4] = with 3 μM SN34037, read-out: PLC/PRF/5-WT +AKR1C3 Inhibitor Anti-proliferative IC50
Compound,more cytotoxic in PLC/PRF/5 cells than SN34454 [1] [fold],"pIC50 [1, 3]","pIC50 [1, 4]",tolerability of schedule [2],"bystander effect (literature) (AKR1C3 mixed MCLs; Foehrenbacher et al, 2013)","BEE reported in AKR1C3 mixed MCLs (AKR1C3 mixed MCLs; Silva, MSc Thesis) [%]","anti-tumour efficacy (mean tumour volume) ([2]; SN34454 237, 602 178, 641 178 μmol/kg, FIG. 2)"
"CN1CCN(S(=O)(=O)c2cc([N+](=O)[O-])ccc2N(CCBr)CCOS(C)(=O)=O)CC1 [Compound 602, 2-((2-bromoethyl)(2-((4-methylpiperazin-1-yl)sulfonyl)-4-nitrophenyl)amino)ethyl methanesulfonate]",94,5.92,4.63,well-tolerated,–,–,–
"CN1CCN(S(=O)(=O)c2cc([N+](=O)[O-])ccc2N(CCOS(C)(=O)=O)CCOS(C)(=O)=O)CC1 [Compound 641, ((2-((4-methylpiperazin-1-yl)sulfonyl)-4-nitrophenyl)azanediyl)bis(ethane-2,1-diyl) dimethanesulfonate]",–,5.85,4.39,well-tolerated,–,–,–
"CS(=O)(=O)OCCN(CCBr)c1c(C(=O)NCCO)cc([N+](=O)[O-])cc1[N+](=O)[O-] [PR-104A, 2-((2-bromoethyl)(2-((2-hydroxyethyl)-carbamoyl)-4,6-dinitrophenyl)amino)ethyl methanesulfonate, reference compound]",–,3.96,3.74,–,substantial bystander effect,–,–
"CN1CCN(C(=O)c2cc([N+](=O)[O-])ccc2N(CCBr)CCBr)CC1 [SN34118, reference compound]",–,3.94,3.76,–,–,52.7,–
"CN1CCN(C(=O)c2cc([N+](=O)[O-])ccc2N(CCBr)CCOS(C)(=O)=O)CC1 [SN34454, reference compound]",–,3.95,3.88,well-tolerated,–,–,anti-tumour efficacy
